According to PubChem BioAssay (NCI):
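Method: 48-hour compound exposure of cells in 96-well plates, five concentrations, linear interpolation of endpoints. GI50 marks 50% less growth. Definition used: TGI = concentration required for complete inhibition of growth.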

Legend:
Assay in all cases: NCI anticancer screen, dose series, 48 h
TK-10 renal = system: TK-10 renal
HCT-116 colon = system: HCT-116 colon
CAKI-1 renal = system: CAKI-1 renal
OVCAR-5 ovarian = system: OVCAR-5 ovarian
MALME-3M melanoma = system: MALME-3M melanoma
SF-539 CNS = system: SF-539 CNS
M14 melanoma = system: M14 melanoma
NCI-H460 lung = system: NCI-H460 lung
MCF7 breast = system: MCF7 breast
NCI/ADR-RES ovarian = system: NCI/ADR-RES ovarian

Compound	TGI (TK-10 renal) [µM]	TGI (HCT-116 colon) [µM]	TGI (CAKI-1 renal) [µM]	TGI (OVCAR-5 ovarian) [µM]	TGI (MALME-3M melanoma) [µM]	TGI (SF-539 CNS) [µM]	TGI (M14 melanoma) [µM]	TGI (NCI-H460 lung) [µM]	GI50 (TK-10 renal) [µM]	GI50 (HCT-116 colon) [µM]	GI50 (CAKI-1 renal) [µM]	GI50 (OVCAR-5 ovarian) [µM]	GI50 (MALME-3M melanoma) [µM]	GI50 (SF-539 CNS) [µM]	GI50 (MCF7 breast) [µM]	TGI (MCF7 breast) [µM]	GI50 (NCI/ADR-RES ovarian) [µM]	TGI (NCI/ADR-RES ovarian) [µM]	GI50 (M14 melanoma) [µM]	GI50 (NCI-H460 lung) [µM]
COC(=O)C1=C(c2ccc(Cl)cc2)C(O)N=C(NN)N1 (centres undefined)	> 100	> 100	> 100	> 100	> 100	> 100	> 100	> 100												
CC1=C(C(=O)Nc2ccccc2C)C(c2ccccc2C)C(C(=O)Nc2ccccc2C)=C(C)N1	64.4	50.4		66.3	38.2	> 10		53.9												
CC(=O)O/N=C/c1cc2c(cc1Br)OCO2	> 349		> 349	> 349	> 349			> 349												
COc1cc2c(cc1OCCCCCn1c3ccccc3c3ccccc31)N=C[C@@H]1CCCN1C2=O	4.84	3.33	4.58	5.49	4.72	3.37			2.25	1.65	1.93	2.42	2.2	1.85	2.33	9.19	2.14	4.75		
O=C1NN=CN2C(=O)CCC12 (centres undefined)	> 100	> 100	> 100			> 100	> 100	> 100												
NC(=O)N/N=C(\CCC(=O)N(Cc1ccccc1)Cc1ccccc1)CC(=O)c1ccc(F)cc1	> 100	> 100	> 100	> 100	> 100	62.4	> 100	> 100												
N#CC(C(=O)CCC(=O)Nc1ccc(Cl)c(Cl)c1)c1ccc(Cl)cc1 (centres undefined)	> 100	> 100	> 100	> 100	> 100	> 100	> 100	> 100												
O=C(Cn1c2ccccc2c2ccncc21)N/N=C\c1ccc2ccccc2c1	54.7	15		> 100	45.6	28.7	50.2	39.9	27.3	3.51		36.5	11.4	13.6	14.3	> 100	15.8	> 100	16.5	13.9
CCCCCCCCCCCCCCCCCc1nnc(N)o1	> 100	> 100	> 100	> 100	> 100	> 100	> 100	> 100												
COc1ccc2c(c1OC)C(=O)O[C@@H]2[C@H]1c2c(c(Br)c3c(c2OC)OCO3)CCN1C	94.5	> 100	37.5	> 100		> 100	25	> 100	14.4	4.69	4.22	> 100		7.09	4.18	> 100	9.22	> 100	3.3	3.6
CC1CC(=O)c2c(ccc3c2C(=O)c2cccc(O)c2C3=O)C1 (centres undefined)		20.1		36.1	19.8	29.5	10.7	19.5												
O=C(CC(=O)c1ccccc1)C(=O)NC12CC3CC(CC(C3)C1)C2	> 100	> 100	> 100	> 100	> 100	> 100	> 100	> 56.9												
NS(=O)(=O)c1ccc(NC(=O)c2cccc3c(Nc4ccc(S(N)(=O)=O)cc4)c4ccccc4nc23)cc1	> 100	> 100	> 100	> 100	> 100	> 100	> 100	> 100												
CCc1c2c(nc3ccc(OCc4ccc(B5OC(C)(C)C(C)(C)O5)cc4)cc13)-c1cc3c(c(=O)n1C2)COC(=O)[C@]3(O)CC	> 100	> 100	1.22	> 100	3.07	0.131		1.24	1.83	0.0169	0.0162	0.215	0.134	< 0.0109			0.0622	> 100	0.0141	0.0125
CCOC(=O)c1cn(CC)c2cc3c(cc2c1=O)SCS3	> 100		> 100	> 100	> 100	> 100	> 100	> 100												
Cc1cc(Cl)ccc1Nc1nc(C(F)(F)F)ccc1C(=O)Nc1cccc(C(F)(F)F)c1	21		17.8	19.3	9.17	14.7		10.6	4.4		3.61	4.75	1.97	3.27	2.28	7.71	3.38	14.7		3.07
O=CN1N=C(c2ccc(Nc3ccnc4cc(Cl)ccc34)cc2)CC1c1ccc(Cl)cc1 (centres undefined)	> 100	> 100	> 100	> 100		> 100	> 100	> 100	9.57	0.499	0.409	6.46		0.575	0.48	> 100	0.359	> 100	0.622	0.592
O=C1NC(SCc2ccc(F)cc2)=N/C1=C/c1cccc(OCc2ccc(Cl)cc2)c1	87.8	14.9		> 100	> 100	72.2	> 100	30.3	6.07	3.27		> 100	26.5	4.87	19.7	> 100	22.2	> 100	47.4	4.39
